{
  "source": "patent US7563862B2",
  "about": "“Neural regeneration peptides and methods for their use in treatment of brain damage” (Neuren Pharmaceuticals Limited, priority 2001, dated 2009)",
  "key": {"[1]": {"system": "mouse forebrain neural stem cells", "assay": "neurosphere expansion assay, shift from symmetric to asymmetric division of neural stem cells", "type": "cell-based", "conditions": "nanomolar concentrations", "from_the_text": "To determine whether NRPs could induce a shift of cells within neurospheres from symmetric (two stem cells, both stem cells) to asymmetric division of neural stem cells (1 stem cell, 1 neuronal progenitor or neuroblast cell), as has been described for erythropoietin (EPO) by Shingo et al. (2001), neurospheres were dissociated by trituration and seeded for expansion at a density of 200,000 cells/well in 6 well plates in NSA medium with EGF only, EGF plus varying concentrations of an NRP, or EGF plus 10 U/ml EPO. One half of the medium with fresh NRP compound was exchanged every other day. After 7 days the cells from the neurospheres were plated. In the presence of EGF, cells retain symmetric cell division. With the removal of EGF, cells begin to differentiate (asymmetric cell division). Subsequently, the cells were subjected to a differentiation assay as described below, with the exception that bFGF was not added to the plating medium for the initial 24 h and differentiation for 7 days was allowed in control medium without NRPs or other compounds. In cells that had never been exposed to an NRP, the numbers of neuroblast cells were lower than in cells that had been exposed to an NRP or EPO. Therefore, NRPs can increase the differentiation of undifferentiated stem cells into neuroblast cells."}, "[2]": {"system": "un-injured cerebellar microexplants", "assay": "proliferation induction without injury, cerebellar microexplants", "type": "cell-based, rat", "experimental": "FIG. 17 depicts results of proliferation induction without injury using NRP-2 segment KG (SEQ ID NO: 18) and rat NRP-1 (SEQ ID NO: 2). Peptides were administered 24hrs after start of cultivation to decrease interference in the assay due to initial neuronal survival or adherence effects. The cultures were fixed after 3 days in vitro. There was neuronal proliferation seen at 300 μM of NRP-2 segment KG (SEQ ID NO: 18).\nWithin the applied proliferation assay rat NRP-1 (SEQ ID NO:2) and NRP-2KS (SEQ ID NO:23) were tested for neuronal proliferation inducing activity (see FIG. 19). In order to discriminate proliferation from increased survival and cellular adhesion properties, NRP-2 KS (SEQ ID NO:23) was administered 24 hrs after the start of cultivation. Rat NRP-1(SEQ ID NO:2) had specific effects on neuronal proliferation, (see FIGS. 7, 9 and 10). Neuronal proliferation induced by NRP-2KS (SEQ ID NO:23) occurred within a range of about 0.3-30 nM using un-injured cerebellar microexplants (verified by counting cells displaying neurite outgrowth)."}, "neural stem cells": {"system": "neural stem cells", "assay": "neural stem cell differentiation assay, neuronal differentiation and axonal outgrowth", "type": "cell-based, mouse", "experimental": "Neural stem cells were derived from E15 C3H mice forebrain and cultured as neurospheres in the presence of 20 ng/ml EGF and 10 ng/ml bFGF as described in Gritti et al. (2001). Briefly, timed pregnant mice were sacrificed and the embryos removed. Under sterile conditions the brains were removed and the forebrains dissected. The tissue was dissociated by trituration and pelleted by 75 g centrifugation for 10 minutes and the cells seeded in non-coated tissue culture flasks in NSA medium with growth factors. For passaging neurospheres were triturated and seeded as single cells.\nUpon reaching a sufficient size, neurospheres were dissociated by trituration and plated at a density of 200,000 cells per well on laminin-coated 13 mm diameter coverslips that had been placed in Nunc 24 well plates. The plating medium was a 1:1 mixture of DMEM/F12 supplemented with N2 and Neurobasal supplemented with B27 and 2 mM glutamine. To enhance survival after plating the medium contained 2 ng/ml bFGF. After 24 h the medium was replaced with a neuronal differentiation-promoting medium (1:3 mixture of DMEM/F12 supplemented with N2 and Neurobasal supplemented with B27 and 2 mM glutamine) and except for the controls the test compound or IGF-1 was added simultaneously. The medium with fresh compound was exchanged every other day. Seven days after plating the differentiating cells were incubated for 20 minutes in differentiation medium containing 100 ng/ml Syto21 to label the nuclei of viable cells. Subsequently, they were fixed with 4% paraformaldehyde and immunostained with a mouse anti-βIII tubulin antibody and a goat anti-mouse Cy3-coupled secondary antibody.\nAfter staining the coverslips were removed from the tissue culture plate and mounted on […], using Immunofluore fluorescent mounting medium. To analyse the percentage of neurons of total cells, with a Zeiss axiophot microscope, equipped with Axoivision software, at 20× magnification images of two random fields per well were taken in the red (tubulin stained neurons) and green (Syto21 stained nuclei) fluorescent channel. Neurons and nuclei per field were counted and the neuronal percentage of total cell number determined."}, "mouse neural stem cells": {"system": "mouse neural stem cells", "assay": "haptotactic migration assay, mouse neural stem cells", "type": "cell-based", "experimental": "NRPs were tested for migration-inducing/chemoattractive activity on mouse neural stem cells, EGF-dependent immortalized mouse neural stem cell line MEB5 and wild-type PC-12 cells in a haptotactic migration assay as described below.\nInitial NRP Coating. Control wells of Transwell plates (Coming) with 12 μm pore size were coated in 1.5 ml of the BSA/PBS vehicle. Remaining plates were coated using various concentrations of NRPs ranging between 1-100 ng/ml (prepared in PBS containing 10 ug/ml BSA). The plates were then incubated at 37° C. for 1 hr to coat. Wells were then rinsed 2× with 1 ml sterile PBS.\nLaminin ([…]) for MEB-5 cells, PDL (50 μg/ml)+Matrigel for mouse primary stem cells and fibronectin (25 ug/ml)+matrigel for PC-12 cells were used as extracellular matrix (ECM) coating for the cells. All ECM compounds were diluted in PBS. 1.5 ml of the ECM per well was incubated for 2 hrs at room temperature. The wells were then rinsed once with Iml serum-free media (e.g. NB/B27) followed by 1 ml PBS wash.\nA 5 ug/mL PDL/PLL mixture (in PBS) was used to coat inserts. Subsequently the inserts were rinsed with MilliQ water.\nTransferring to Media and Cell Seeding: Appropriate medium (MEB-5 cells: DMEM-high glucose+N2 (growth medium supplement from Invitrogen)+10 ng/biotin+2 mM L-glutamine, primary stem cells: NSA-medium from Euroclone and for PC-12 cells: NB/B27 medium) was transferred into the 12-well plates. […] Plates were fixed at 1-2 days in vitro (DIV).\nFixation: Inserts were discarded and wells fixed in successive dilutions of PFA (0.4, 1.2, 3 and 4%) for 3-5min in each dilution. […] The wells were rinsed and stored in PBS until counting.\nA haptotactic migration assay was performed according to the description of Example 10 using rat NRP-9SD (SEQ ID NO:34) (4 nM) and mouse NRP-7SW (SEQ ID NO:24) (0.4 nM) as attractants in a Boyden chamber"}},
  "note": "Ends that are not written are not given here.",
  "data": [
    {"substance": "KDPEARRAPGSLHPCLAAS-NH2 [NRP-2 segment KS, 19-mer fragment of NRP-2]", "values": [
      {"measurement": "production of neuronal progenitors", "setting": "[1]", "value": "promoted the production of neuronal progenitors at the expense of multipotent stem cells"},
      {"measurement": "increased neuronal cell proliferation, greater than vehicle-treated controls", "setting": "[2]; 300 μM", "value": 117.5, "unit": "%"},
      {"measurement": "concentration range of induced neuronal proliferation", "setting": "[2]; peptide 24 hrs after start of cultivation", "value": "0.3 to 30", "unit": "nM"},
      {"measurement": "maximum increase in beta-III-tubulin-positive neurons", "setting": "neural stem cells; 1 0nM, 7 days differentiation", "value": 2, "unit": "fold"},
      {"measurement": "proliferation rate during differentiation of NSC", "setting": "neural stem cells; together with BrdU for 24 hrs", "value": "an increase in the proliferation rate"}
    ]},
    {"substance": "SEPEARRAPGRKGGVVCASLAADW-NH2 [NRP-7 segment SW, 24-mer form of mouse NRP-7]", "values": [
      {"measurement": "more NSCs attracted to the culture dish bottom", "setting": "mouse neural stem cells; 0.4 nM", "value": 2, "unit": "fold"},
      {"measurement": "more E-14 cell density compared with BSA-vehicle", "setting": "mouse neural stem cells; 10 ng/ml coating, 400,000 cells", "value": 35, "unit": "%"},
      {"measurement": "potency relative to SDF-1", "setting": "mouse neural stem cells; SDF-1 100 nM vs NRP-7SW 0.2 nM", "value": "about 500 times"},
      {"measurement": "maximum increase in beta-III-tubulin-positive neurons", "setting": "neural stem cells; 10 pM, 7 days differentiation", "value": 2, "unit": "fold"},
      {"measurement": "axonal outgrowth-promoting activity", "setting": "neural stem cells; 7 days differentiation", "value": "maximum activity for an increase in axonal length growth lies in the upper nanomolar range"}
    ]},
    {"substance": "NRP-1: rat 16 amino acid neural regeneration peptide purified from hippocampal OTC supernatant, Tyr Asp Pro Glu ... Cys His-NH2 (YDPEAASAPGSGNPCH-NH2)", "values": [
      {"measurement": "concentration of greatest effect on neuronal proliferation", "setting": "[2]", "value": 3, "unit": "nM"},
      {"measurement": "up regulation of neuronal cell proliferation", "setting": "[2]; 3 nM", "value": 81.2, "unit": "%"}
    ]}
  ]
}
